Values of other authors, collected in patent publication US20250114332A1 (LABORATORIOS SILANES S.A. DE C.V., priority 2023, published 2025).
Like-named read-outs stand apart in the source and are kept apart here.

Settings: drug substance

Row | Biopharmaceutical classification (listed as acetaminophen) | Structure (SMILES) | Biopharmaceutical classification
1 | group III | CC(=O)Nc1ccc(O)cc1 [Acetaminophen, N-(4-hydroxyphenyl) acetamide] | Group III (high solubility and low permeability)
2 | – | Cc1ccc(-c2cc(C(F)(F)F)nn2-c2ccc(S(N)(=O)=O)cc2)cc1 [Celecoxib] | Belongs to group II (high permeability and low
